pKi: −log10 of the molar value.
assay: Binding affinity against opioid receptor delta 1 using [3H]naltrindole as radioligand in guinea pig brain membranes.

**Q.** With `c1cc2c(cc1-c1nnn[nH]1)[C@@]13CCCC[C@H]1[C@@H](C2)N(CC1CCC1)CC3` [3-(1'H-Tetrazol-5'-yl)-N-cyclobutylmethylmorphinan] as the molecule, how does the pKi read?
**A.** The pKi was less than 5.00.

**Q.** With `CN1CC[C@]23CCCC[C@H]2[C@H]1Cc1ccc(-c2nnn[nH]2)cc13` [3-(1'H-Tetrazol-5'-yl)-N-methylmorphinan] as the molecule, how does the pKi read?
**A.** Its pKi is less than 5.00.

**Q.** With `Nc1ccc2c(c1)[C@@]13CCCC[C@H]1[C@@H](C2=O)N(CC1CCC1)CC3` [3-Amino-10-keto-N-cyclobutylmethylmorphinan] as the molecule, how does the pKi read?
**A.** The pKi was 6.22.

**Q.** With `NCc1ccc2c(c1)[C@@]13CCCC[C@H]1[C@@H](C2)N(CC1CCC1)CC3` [3-Aminomethyl-N-cyclobutylmethylmorphinan] as the molecule, how does the pKi read?
**A.** The pKi was 6.39.

**Q.** With `CN1CC[C@]23CCCC[C@H]2[C@H]1Cc1ccc(CN)cc13` [3-Aminomethyl-N-methylmorphinan] as the molecule, how does the pKi read?
**A.** Its pKi is 5.60.

**Q.** With `NC(=O)c1ccc2c(c1)[C@@]13CCCC[C@H]1[C@@H](C2=O)N(CC1CCC1)CC3` [3-Carboxamido-10-keto-N-cyclobutylmethylmorphinan] as the molecule, how does the pKi read?
**A.** The pKi was 7.30.

**Q.** With `NC(=O)c1ccc2c(c1)[C@@]13CCCC[C@H]1[C@@H](C2)N(CC1CCC1)CC3` [3-Carboxamido-N-cyclobutylmethylmorphinan] as the molecule, how does the pKi read?
**A.** Its pKi is 8.40.

**Q.** With `NC(=O)c1ccc2c(c1)[C@@]13CCCC[C@H]1[C@@H](C2)N(CC1CC1)CC3` [3-Carboxamido-N-cyclopropylmethylmorphinan] as the molecule, how does the pKi read?
**A.** Its pKi is 9.00.

**Q.** With `CN1CC[C@]23CCCC[C@H]2[C@H]1Cc1ccc(C(N)=O)cc13` [3-Carboxamido-N-methylmorphinan] as the molecule, how does the pKi read?
**A.** Its pKi is 7.89.

**Q.** With `O=C(O)c1ccc2c(c1)[C@@]13CCCC[C@H]1[C@@H](C2=O)N(CC1CCC1)CC3` [3-Carboxyl-10-keto-N-cyclobutylmethyl morphinan] as the molecule, how does the pKi read?
**A.** The pKi was 6.10.

**Q.** With `N#Cc1ccc2c(c1)[C@@]13CCCC[C@H]1[C@@H](C2=O)N(CC1CCC1)CC3` [3-Cyano-10-keto-N-cyclobutylmethylmorphinan] as the molecule, how does the pKi read?
**A.** Its pKi is less than 5.00.

**Q.** With `N#Cc1ccc2c(c1)[C@@]13CCCC[C@H]1[C@@H](C2)N(CC1CCC1)CC3` [3-Cyano-N-cyclobutylmethylmorphinan] as the molecule, how does the pKi read?
**A.** Its pKi is 5.72.

**Q.** With `CN1CC[C@]23CCCC[C@H]2[C@H]1Cc1ccc(C#N)cc13` [3-Cyano-N-methylmorphinan] as the molecule, how does the pKi read?
**A.** Its pKi is less than 6.00.

**Q.** With `O=C1c2ccc(O)cc2[C@@]23CCCC[C@H]2[C@@H]1N(CCF)CC3` [3-Hydroxy-10-keto-N-(2-fluoroethyl)morphinan] as the molecule, how does the pKi read?
**A.** Its pKi is less than 5.00.

**Q.** With `COCCN1CC[C@]23CCCC[C@H]2[C@H]1C(=O)c1ccc(O)cc13` [3-Hydroxy-10-keto-N-(2-methoxyethyl)morphinan] as the molecule, how does the pKi read?
**A.** The pKi was less than 5.00.

**Q.** With `O=C1c2ccc(O)cc2[C@@]23CCCC[C@H]2[C@@H]1N(Cc1ccc2ccccc2c1)CC3` [3-Hydroxy-10-keto-N-(2-naphthylmethyl)morphinan] as the molecule, how does the pKi read?
**A.** Its pKi is less than 5.00.

**Q.** With `CC(C)=CCN1CC[C@]23CCCC[C@H]2[C@H]1C(=O)c1ccc(O)cc13` [3-Hydroxy-10-keto-N-(3,3-dimethylallyl)morphinan] as the molecule, how does the pKi read?
**A.** The pKi was 5.96.

**Q.** With `O=C1c2ccc(O)cc2[C@@]23CCCC[C@H]2[C@@H]1N(C[C@@H]1CCCO1)CC3` [3-Hydroxy-10-keto-N-(tetrahydrofuran-2-yl)methylmorphinan] as the molecule, how does the pKi read?
**A.** The pKi was 9.00.

**Q.** With `O=C1c2ccc(O)cc2[C@@]23CCCC[C@H]2[C@@H]1N(CC1CC1)CC3` [3-Hydroxy-10-keto-N-cyclopropylmethylmorphinan] as the molecule, how does the pKi read?
**A.** The pKi was 6.82.

**Q.** With `CN1CC[C@]23CCCC[C@H]2[C@H]1C(=O)c1ccc(O)cc13` [3-Hydroxy-10-keto-N-methylmorphinan] as the molecule, how does the pKi read?
**A.** Its pKi is 5.92.

**Q.** With `COc1ccc2c(c1)[C@@]13CCCC[C@H]1[C@H](NCC3)C2=O` [3-Methoxy normorphinan] as the molecule, how does the pKi read?
**A.** Its pKi is 7.80.

**Q.** With `O=C1c2ccc(OCC3CCC3)cc2[C@@]23CCCC[C@H]2[C@@H]1N(CC1CCC1)CC3` [3-O-Cyclobutylmethyl-10-keto-N-cyclobutylmethylmorphinan] as the molecule, how does the pKi read?
**A.** The pKi was less than 5.00.

**Q.** With `C#CCOc1ccc2c(c1)[C@@]13CCCC[C@H]1[C@@H](C2=O)N(CC#C)CC3` [3-O-Propargyl-10-keto-N-propargylmorphinan] as the molecule, how does the pKi read?
**A.** Its pKi is less than 5.00.

**Q.** With `O=C1c2ccc(-c3nnn[nH]3)cc2[C@@]23CCCC[C@H]2[C@@H]1N(CC1CCC1)CC3` [3-Tetrazolo-10-keto-N-cyclobutylmethylmorphinan] as the molecule, how does the pKi read?
**A.** Its pKi is 5.74.

**Q.** With `O=C1c2ccc(O)cc2[C@@]23CCCC[C@H]2[C@@H]1NCC3` [3-hydroxy-normorphinan] as the molecule, how does the pKi read?
**A.** The pKi was less than 5.00.

From BindingDB's records for doi:10.1021/jm0304156 (Harvard Medical School, 2003)
